Results: patent publication US12187722B2, “Small molecule inhibitors of TEAD transcription factors” (The General Hospital Corporation, priority 2019, dated 2025)
Several values for one entry are separate records, joined by “and”; a condition that tells them apart may be missing. Equal values may be shown once.

Biological target: TEAD2 (Homo sapiens (Human), UniProt Q15562)
Assay: In vitro palmitoylation (TEAD2 autopalmitoylation, streptavidin blot)
Assay type: biochemical
Conditions: compound at 10 μM
Procedure, shortened: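 Recombinant GST- or His6-TEAD2 (500 ng) preincubated 15 min with compound, then 30 min with 1 μM alkyne palmitoyl-CoA; click-labelled with biotin-azide (1 h, RT). Streptavidin-HRP blot band intensity quantified after SDS-PAGE; inhibition of autopalmitoylation relative to DMSO control.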

Chain of TEAD2 (Q15562 whole entry): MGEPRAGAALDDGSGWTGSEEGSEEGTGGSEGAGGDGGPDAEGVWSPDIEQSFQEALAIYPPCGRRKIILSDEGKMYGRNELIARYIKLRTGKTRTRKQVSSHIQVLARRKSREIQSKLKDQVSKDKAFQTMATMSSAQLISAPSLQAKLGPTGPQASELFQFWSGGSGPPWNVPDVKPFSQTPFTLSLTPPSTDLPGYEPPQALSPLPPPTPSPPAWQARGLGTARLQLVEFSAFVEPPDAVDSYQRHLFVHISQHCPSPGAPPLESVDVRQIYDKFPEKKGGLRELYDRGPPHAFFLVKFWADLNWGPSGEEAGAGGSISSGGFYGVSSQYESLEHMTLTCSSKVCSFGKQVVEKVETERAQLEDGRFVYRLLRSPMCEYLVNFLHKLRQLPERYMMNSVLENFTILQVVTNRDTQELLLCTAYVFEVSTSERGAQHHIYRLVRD

SMILES	inhibition at 10 µM [%]
O=C(Nc1ccc(C23CC4CC(CC(C4)C2)C3)cc1)c1ccc2nc[nH]c2c1	5
O=C(Nc1ccc(C23CC4CC(CC(C4)C2)C3)cc1Cl)c1ccc2nc[nH]c2c1	20
Clc1cc(C23CC4CC(CC(C4)C2)C3)ccc1Nc1ccc(Nc2ccccc2-c2nnn[nH]2)cc1	20
C=CC(=O)c1ccccc1Nc1ccc(Nc2ccc(C34CC5CC(CC(C5)C3)C4)cc2)cc1	5

Same assay, conditions: compound at 10 μM; Table 2

SMILES	inhibition at 10 µM [%]	% of inhibition of TEAD2 palmitoylation at 10 μM
O=C(O)c1ccccc1Nc1cccc(Nc2ccc(C34CC5CC(CC(C5)C3)C4)cc2)c1 [Compound 25]	90	
COCCOc1ccc(Nc2ccc(N(C)c3ccc(C45CC6CC(CC(C6)C4)C5)cc3)cc2)c(C(=O)O)c1 [Compound 269]	100	
CN(c1ccc(OCC23CC4CC(CC(C4)C2)C3)cc1)c1ccc(N(C)c2ccccc2C(=O)O)cc1 [Compound 208]	100	
COc1cccc(Nc2cccc(C(=O)Nc3ccc(C45CC6CC(CC(C6)C4)C5)cc3)c2)c1C(=O)O [Compound 248]	32	
CN(c1ccc(Nc2ncccc2C(=O)O)cc1)c1ccc(C23CC4CC(CC(C4)C2)C3)cc1Cl [Compound 142]	65	
O=C(O)c1cccc2nc(-c3cccc(C45CC6CC(CC(C6)C4)C5)c3)[nH]c12 [Compound 97]	60	
CCCCN(CCCC)C(=O)c1ccc(Nc2ccc(Nc3ccccc3C(=O)O)cc2)cc1 [Compound 175]	70	
O=C(Nc1ccc(Nc2ccccc2C(=O)O)cc1)c1ccc(C23CC4CC(CC(C4)C2)C3)cc1 [Compound 157]	80	
O=C(Nc1ccc(C23CC4CC(CC(C4)C2)C3)cc1Cl)c1ccc(Nc2ncccc2C(=O)O)cc1 [Compound 183]	100	96%
O=C(Nc1ccc(C23CC4CC(CC(C4)C2)C3)cc1)c1ccc(Nc2ccccc2C(=O)O)cc1 [Compound 35]		63% and 86%
O=C(O)c1ccccc1Nc1ccc(Nc2ccc(-c3ccccc3Cl)cc2Cl)cc1 [Compound 58]	60	
O=C(O)c1ccccc1C(=O)Nc1ccc(Nc2ccc(C34CC5CC(CC(C5)C3)C4)cc2Cl)cc1 [compound 279]	98	
O=C(Nc1ccc(C23CC4CC(CC(C4)C2)C3)cc1)c1cccc(Nc2ncccc2C(=O)O)c1 [Compound 234]	64	
CN(c1cccc(C(=O)Nc2ccc(C34CC5CC(CC(C5)C3)C4)cc2)c1)c1ccccc1C(=O)O [Compound 230]	0	
COC(=O)c1ccccc1Nc1ccc(C(=O)Nc2ccc(C34CC5CC(CC(C5)C3)C4)cc2Cl)cc1 [Compound 6]	0	
O=C(O)c1cccnc1Nc1ncn(Cc2ccc(C34CC5CC(CC(C5)C3)C4)cc2Cl)n1 [Compound 129]	41	
O=C(O)c1ncccc1Nc1ccc(Nc2ccc(C34CC5CC(CC(C5)C3)C4)cc2Cl)cc1 [Compound 82]	67	
O=C(O)c1ccccc1Nc1cccc(S(=O)(=O)Nc2ccc(C34CC5CC(CC(C5)C3)C4)cc2)c1 [Compound 246]	99	
O=C(O)C1CCCCC1Nc1ccc(Nc2ccc(C34CC5CC(CC(C5)C3)C4)cc2Cl)cc1 (stereo not drawn) [Compound 47]		83%
O=C(O)c1cccnc1Nc1ccc(Nc2ccc(C34CC5CC(CC(C5)C3)C4)cc2Cl)nc1 [Compound 91]	97	
NC1(C(=O)Nc2ccc(Nc3ccc(C45CC6CC(CC(C6)C4)C5)cc3Cl)cc2)CC1 [compound 280]	17	
O=C(Nc1ccc(Nc2ccccc2C(=O)O)cc1)Nc1ccc(C23CC4CC(CC(C4)C2)C3)cc1 [Compound 189]	34	

SMILES	inhibition at 10 µM [%]	% of inhibition of TEAD2 palmitoylation at 10 μM
O=C(O)c1cc(C(F)(F)F)ccc1Nc1cc(Nc2ccc(C34CC5CC(CC(C5)C3)C4)cc2)cc(C(F)(F)F)c1 [Compound 29]	90	
O=C(Nc1ccc(C23CC4CC(CC(C4)C2)C3)cc1)c1ccc(Oc2ccccc2C(=O)O)cc1 [Compound 215]	87	
O=C(NC12CC3CC(CC(C3)C1)C2)c1ccc(Nc2ccc(Nc3ncccc3C(=O)O)cc2)cc1 [Compound 257]	55	
CCCCN(c1ccccc1)c1ccc(Nc2ccc(Nc3cccc(C(=O)O)n3)cc2)cc1 [Compound 202]	49	
Cn1c(-c2ccc(Nc3ccc(C45CC6CC(CC(C6)C4)C5)cc3)cc2)nc2c(C(=O)O)cccc21 [Compound 199]	6	
CC(C)c1ccccc1Cc1cccc(Nc2ncccc2C(=O)O)c1 [Compound 113]	100	
CN(c1ccc(Nc2cccc(C(=O)NC34CC5CC(CC(C5)C3)C4)c2)cc1)c1ccccc1C(=O)O [Compound 232]	33	
O=C(O)c1ccnc(Nc2ccc(Nc3ccc(C45CC6CC(CC(C6)C4)C5)cc3Cl)cc2)c1 [Compound 89]	90	
c1ccc2c(c1)ccn2-c1ccc(Nc2ccc(C34CC5CC(CC(C5)C3)C4)cc2)cc1 [Compound 244]	8	
O=C(O)Cn1ccc2cc(Nc3ccc(C45CC6CC(CC(C6)C4)C5)cc3Cl)ccc21 [Compound 130]	100	
O=C(Nc1ccccc1C(=O)O)c1cccc(Nc2ccc(C34CC5CC(CC(C5)C3)C4)cc2)c1 [Compound 239]	98	100%
O=C(NCc1ccc(C23CC4CC(CC(C4)C2)C3)cc1)c1ccc(Nc2ccccc2C(=O)O)cc1 [Compound 267]	36	
O=C(O)c1cccc(Nc2ccc(Nc3ccc(C45CC6CC(CC(C6)C4)C5)cc3Cl)cc2)c1 [Compound 84]	98	
O=C(CCc1ccc(Nc2ccccc2C(=O)O)cc1)Nc1ccc(C23CC4CC(CC(C4)C2)C3)cc1 [Compound 220]	10	
O=C(Nc1ccc(C23CC4CC(CC(C4)C2)C3)cc1Br)c1ccc(Nc2ccccc2C(=O)O)cc1 [Compound 36]	100	
O=C(O)c1ccccc1Nc1ncc(Nc2ccc(C34CC5CC(CC(C5)C3)C4)cc2Cl)cn1 [compound 284]	14	
O=C(O)c1ccccc1Nc1ccc(S(=O)(=O)Nc2ccc(C34CC5CC(CC(C5)C3)C4)cc2Cl)cc1 [Compound 260]	71	
CC12CC3CC(C)(C1)CC(c1ccc(Nc4ccc(Nc5ccccc5C(=O)O)cc4)cc1)(C3)C2 [Compound 177]	56	
Cc1ccccc1-c1cc(Cl)c(Nc2ccc(Nc3ccccc3C(=O)O)cc2)cc1C [Compound 61]	70	
O=C(Nc1ccc(C23CC4CC(CC(C4)C2)C3)cc1)c1cccc(Nc2ccccc2C(=O)O)c1 [Compound 214]	88	73%
O=C(O)c1ccccc1Nc1cc(Nc2ccc(C34CC5CC(CC(C5)C3)C4)cc2Cl)cc(C(F)(F)F)c1 [Compound 33]	50	

Same assay, conditions: compound at 10 μM; Table 3

SMILES	inhibition at 10 µM [%]
COc1ccc(Nc2ccc(N(C)c3ccc(C4CCC(C)CC4)cc3)cc2)c(C(=O)O)c1 (stereo not drawn) [CP-574]	91
CN(c1ccc(Nc2cccc(C(=O)O)n2)cn1)c1ccc(C2CCCCC2)cc1Cl [CP-659]	46
CNS(=O)(=O)c1ccc(Nc2ccc(N(C)c3ccc(C4CCCCC4)cc3Cl)cc2C)c(C(=O)O)c1 [CP-671]	97
COc1ccc(Nc2ccc(N(C)c3cc(Cl)cc(Cl)c3)cc2)c(C(=O)O)c1 [CP-612]	86
CNC(=O)c1cc(OC)ccc1Nc1ccc(N(C)c2ccc(C(F)(F)F)cc2)cc1 [CP-606]	63
N#Cc1cccc(Nc2ccc(Nc3ccc(C45CC6CC(CC(C6)C4)C5)cc3Cl)cc2)n1 [CP-688]	17
O=C(O)c1cccc(Nc2cc(Nc3ccc(C4CCCCC4)cc3)cc(C(F)(F)F)c2)n1 [CP-641]	69
COc1ccc(Nc2ccc(Oc3ccc(C4CCCCC4)cc3Cl)nc2)c(C(=O)O)c1 [CP-591]	88
COc1ccc(Nc2ccc(N(C)c3ccc(OC(F)(F)F)cc3)nc2)c(C(=O)O)c1 [CP-596]	48
O=C(O)c1cccc(Nc2cc(Nc3ccc(C4CCCCC4)cc3Cl)cc(C(F)(F)F)c2)n1 [CP-660]	66
CNS(=O)(=O)c1cccc(Nc2ccc(Nc3ccc(C45CC6CC(CC(C6)C4)C5)cc3Cl)cc2)n1 [CP-694]	79
COc1ccc(Nc2cnc(N(C)c3ccc(C4CCCCC4)cc3)cc2C)c(C(=O)O)c1 [CP-609]	54
COc1ccc(Nc2ccc(N(C)c3ccc(C4CCCCC4)nc3)cc2)c(C(=O)O)c1 [CP-578]	31
COc1ccc(Nc2ccc(N(C)c3ccc(OCC(F)(F)F)cc3)cc2F)c(C(=O)O)c1 [CP-568]	46
COc1ccc(Nc2ccc(N(C)c3ccc(CN4CCCCC4)cc3)cc2)c(C(=O)O)c1 [CP-567]	6
O=C(Nc1ccc(C2CCCCC2)cc1)c1cccc(Nc2ccccc2C(=O)O)c1 [CP-664]	50
CN(c1ccc(C2CCCCC2)cc1)c1cc(C2CC2)c(Nc2cccc(C(=O)O)n2)cn1 [CP-663]	45
CN(c1ccc(C2CCCCC2)cc1)c1ccc(Nc2cccc(C(=O)O)n2)cn1 [CP-643]	89
Cc1cc(N(C)c2ccc(C3CCCCC3)cc2)ccc1Nc1cccc(C(=O)O)n1 [CP-636]	68
COc1ccc(Nc2ccc(N(C)c3ccc(C4CCC4)cc3)cc2)c(C(=O)O)c1 [CP-556]	61
COc1ccc(Nc2ccc(N(C)c3ccccc3OC)cc2)c(C(=O)O)c1 [CP-545]	6
COc1ccc(Nc2cccc(C(=O)Nc3ccc(C(F)(F)F)cc3)c2)c(C(=O)O)c1 [CP-586]	40
COc1ccc(Nc2ccc(N(C)c3ccc(C(F)(F)F)c(Cl)c3)cc2)c(C(=O)O)c1 [CP-617]	76
CN(C)CCOc1ccc(Nc2ccc(N(C)c3ccc(C45CC6CC(CC(C6)C4)C5)cc3)cc2)c(C(=O)O)c1 [CP-526]	23
Cc1cc(N(C)c2ccc(C3CCCCC3)cc2)ccc1Nc1ccc(C(=O)N2CC(C#N)C2)cc1C(=O)O [CP-678]	59
